Source: ChEMBL document CHEMBL1201862, “PubChem BioAssay data set” (2004)
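Where inhibition never reached the appropriate level, the endpoint shown equals the highest concentration tested. Otherwise, values were interpolated linearly from a five-concentration, 48-hour dose response in 96-well plates. GI50 is the concentration that inhibits growth by half.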 Active and inactive are the calls of the source. Rule as the data show it: active = GI50 up to about 1.1 µM and inactive = higher.

How the values were obtained:
Assay in all cases: NCI anticancer screen, dose series, 48 h
HCT-116 = system: HCT-116
COLO 205 = system: COLO 205
M14 = system: M14
SK-MEL-28 = system: SK-MEL-28
786-0 = system: 786-0
Hs-578T = system: Hs-578T
SF-539 = system: SF-539
HOP-62 = system: HOP-62
SNB-75 = system: SNB-75
MDA-N = system: MDA-N
HT-29 = system: HT-29
A498 = system: A498
NCI-H226 = system: NCI-H226
NCI-H23 = system: NCI-H23
SN12C = system: SN12C
SW-620 = system: SW-620
Malme-3M = system: Malme-3M
NCI-H522 = system: NCI-H522

Measured: GI50

CC(=O)Oc1cc2oc(=O)cc(C)c2cc1OC(C)=O
inactive: HCT-116 44 µM | COLO 205 48 µM | M14 50.6 µM | SK-MEL-28 53.1 µM | 786-0 61 µM | Hs-578T 68.4 µM | SF-539 31.3 µM | HOP-62 51.8 µM | SNB-75 48.4 µM | MDA-N > 100 µM | HT-29 39.6 µM | A498 44.6 µM | NCI-H226 40.2 µM | NCI-H23 75.2 µM | SN12C 48.1 µM | SW-620 46.2 µM | Malme-3M 28.5 µM

C=C[C@H]1CC[C@H]2[C@@H]3CC=C4C[C@@H](OC5OCC(O)C(O)C5O)CC[C@]4(C)[C@H]3CC[C@]12C (stereo partly drawn)
inactive: HCT-116 13.7 µM | COLO 205 21.7 µM | M14 16.1 µM | 786-0 15.3 µM | Hs-578T 17.1 µM | NCI-H522 11.4 µM | SF-539 14.9 µM | HOP-62 18 µM | MDA-N 17.6 µM | HT-29 24.4 µM | A498 4.22 µM | NCI-H226 15.5 µM | NCI-H23 26.1 µM | SN12C 15.7 µM | SW-620 17.7 µM

CCC(C)[C@@H](NCc1ccccc1)[C@H](OCc1ccccc1)[C@@H]1COC(C)(C)O1 (stereo partly drawn)
inactive: HCT-116 13 µM | COLO 205 15.9 µM | M14 29.2 µM | SK-MEL-28 24.8 µM | 786-0 18.8 µM | Hs-578T 21.1 µM | HOP-62 32.2 µM | SNB-75 32.6 µM | MDA-N 32.1 µM | HT-29 10.7 µM | NCI-H226 14.8 µM | NCI-H23 18.8 µM | SN12C 22.6 µM | SW-620 18 µM | Malme-3M 18.4 µM

COc1cc2ccnc(C#N)c2cc1OCc1ccccc1
inactive: HCT-116 > 100 µM | M14 > 100 µM | SK-MEL-28 > 100 µM | 786-0 37.4 µM | NCI-H522 50 µM | SF-539 49.9 µM | HOP-62 35.6 µM | SNB-75 21.9 µM | HT-29 > 100 µM | A498 87.1 µM | NCI-H23 > 100 µM | SN12C > 100 µM | SW-620 > 100 µM | Malme-3M > 100 µM

COc1ccc(/C=C/[N+](=O)[O-])cc1
inactive: HCT-116 6.67 µM | COLO 205 4.04 µM | M14 2.79 µM | SK-MEL-28 5.81 µM | 786-0 3.75 µM | Hs-578T 3.05 µM | NCI-H522 20.4 µM | SF-539 1.66 µM | HOP-62 8.07 µM | SNB-75 14.9 µM | HT-29 3.24 µM | A498 5.15 µM | NCI-H226 3.6 µM | NCI-H23 9.75 µM | SN12C 16.3 µM | SW-620 2.83 µM | Malme-3M 19.1 µM
